Laboratory results reported in patent US4265886A, “Spiroketalins and their applications” (Roecar Holdings (Netherlands Antilles (NV), priority 1978, dated 1981).
In brackets after ≈: the same amount, converted by molar mass. Where two headings read alike, the source gives them in different places.

Key:
[1] = test system: erysipelas-induced arthritis (aortic thrombi); assay: erysipelas-induced arthritis in the rat: aortic thrombi; assay type: in vivo, rat (male Wistar); conditions: 3×10 mg/kg per day, 5× per week; for AORTIC THROMBI Present in % of rats: control 90; for AORTIC THROMBI Degree of severity: key 0=No change, 1=Very slight, 2=Slight to medium, 3=Medium to severe, 4=Severe changes, control 2,60 (± 1,35)
Experimental: (§1) The investigation was carried out according to Schulze et al (17 in Betr. Path., 1975, 154, 1-26 and 27-51). Erysipelas arthritis is reproducible in nearly 100% of the rats given a single subcutaneous injection of E. insidiosa. Erysipelas arthritis always afflicts several joints with the same intensity in both major and minor limb joints, besides the coagulopathy and the pathological changes produced in the cardio-vascular system. Proliferating processes occur after 3 months in all surviving animals subjected to experimental erysipelas arthritis.
(§2) In order to test the spiroketalins of this invention the following parameters of the erysepilas arthritis model were used to evaluate their activities:
Fibrin-rich thrombi develop on aorta intima between the 6th and 11th day. The largest spread extended area can be observed around the 8th day.
(§3) Male Wistar rats between 155-185 g were used for these trials. The animals, kept in single cages, received a standard rat diet (Ssniff R) and water ad libitum. Room temperature was kept at 22° C., and the relative humidity varied between 50-60%. Daily illumination lasted for 12 hours. The animals had been acclimatized for 10 days prior to the commencement of the investigation.
(§4) An erysopelothrix insidiosa serotype B-strain T28 was used to challenge the animals and a single 2 ml dose (ca 100-200 million germs) was administered subcutaneously. The examined spiroketalins were suspended in sterile physiological saline and administered at the rate of 3×10 mg/kg per day. Treatment continued from the day of challenge, either to the end of the trial or the death of an animal, at the rate of 5×per week.
The parameters for aorta thrombi have been evaluated according to the following key originally described by Schulz et al. Beitrag. Path., 154, 1-26 and 27-51, 1975.
KEY FOR CLINICAL AORTA THROMBI FINDINGS
2=Slight to medium changes
3=Medium to severe changes

[2] = test system: erysipelas-induced arthritis (corneal lesions); assay: erysipelas-induced arthritis in the rat: corneal lesions (opaquacy); assay type: in vivo, rat (male Wistar); conditions: for CORNEAL LESIONS Degree of severity: 3×10 mg/kg per day, 5× per week, control 2,34; for CORNEAL LESIONS Present in % of rats, day 1: control 0; for CORNEAL LESIONS Present in % of rats, day 6 / CORNEAL LESIONS Present in % of rats, day 8 / CORNEAL LESIONS Present in % of rats, day 12 / CORNEAL LESIONS Present in % of rats, day 15 / CORNEAL LESIONS Present in % of rats, day 19 / CORNEAL LESIONS Present in % of rats, day 20: control 100
Experimental: as §1, §2
Inflammation opaquacy appears in the cornea around the 8th day.
as §3, §4

[3] = test system: yeast-induced hind paw oedema; assay: yeast-induced acute paw oedema in rats; assay type: in vivo, rat; conditions: 500-1000 mg/kg orally or 50-100 mg/kg intraperitoneally, 24 hours before 2% yeast suspension
Experimental: The oral effectiveness of an anti-inflammatory agent is readily shown by administering it to animals (e.g. rats) either orally or parenterally before one of their hind paws is injected with a solution or suspension of an inflammation inducing substance such as kaolin, egg white, formaldehyde, carageenin or yeast. […] Distinct reductions in the acute oedema formation of between 10-40% were observed depending on the dose and route of administration. In order to achieve such reduction with the glucosides of diosgenin, hecogenin and tigogenin doses of 500-1000 mg/kg body mass orally or 50-100 mg/kg intraperitoneally had been administered, 24 hours before the animals were challenged with fresh 2% yeast suspension in physiological saline.

Sprague-Dawley rats [4] = assay: single oral dose animal toxicity, 14 day observation; assay type: in vivo, rat (male Sprague-Dawley); conditions: single oral doses of 125,0; 312,5; 625,0 and 1250 mg/kg
Experimental: Individually housed groups of ten male Sprague-Dawley rats were treated orally with single doses of hecogenin 3-β-D-glucoside or diosgenin 3β-D-glucoside. The poorly water soluble test substances were made up in an aqueous Tylose^R dispersion for homogeneity.
A suitable concentration which allowed the administration of the relevant dose at the rate of 1,0 ml/100 g body weight was prepared immediately before use. Doses ranging from 125 mg/kg to 1250 mg/kg of the agents were tested. The observation period was 14 days after which the animals were sacrificed and a macroscopic examination of some tissues was carried out. Food and water was offered ad libitum.

Sprague-Dawley rats [5] = assay: 100 day feeding study, 0,1% in standard laboratory chow; assay type: in vivo, rat (male Sprague-Dawley); conditions: for mortality: 100 day observation period
Source text: (b) Standard laboratory chow was thoroughly mixed with 0,1% diosgenyl glucoside or hecogenyl glucoside and the mixtures were fed to groups of 20 young male Sprague-Dawley rats weighing approximately 150 g. […] Ten rats from each group were autopsied and the organs and some body tissues examined by macroscopic and microscopic techniques.

physchem = conditions: water
haemolysis = conditions: cited from earlier work
[6] = test system: rats, rabbits and chickens; conditions: cited from earlier work
[7] = rats, rabbits and chickens; cited from earlier work

| Compound | AORTIC THROMBI Present in % of rats [1] [%] | AORTIC THROMBI Degree of severity [1] | CORNEAL LESIONS Degree of severity [2] | CORNEAL LESIONS Present in % of rats, day 1 [2] [%] | CORNEAL LESIONS Present in % of rats, day 6 [2] | CORNEAL LESIONS Present in % of rats, day 8 [2] [%] | CORNEAL LESIONS Present in % of rats, day 12 [2] [%] | CORNEAL LESIONS Present in % of rats, day 15 [2] [%] | CORNEAL LESIONS Present in % of rats, day 19 [2] [%] | CORNEAL LESIONS Present in % of rats, day 20 [2] [%] | reduction in acute oedema formation [3] | mortality (Sprague-Dawley rats [5]; 0,1% in chow) | further results |
| --- | --- | --- | --- | --- | --- | --- | --- | --- | --- | --- | --- | --- | --- |
| C[C@@H]1CC[C@@]2(OC1)O[C@H]1C[C@H]3[C@@H]4CC[C@H]5C[C@@H](O[C@@H]6O[C@H](CO)[C@@H](O)[C@H](O)[C@H]6O)CC[C@]5(C)[C@H]4CC(=O)[C@]3(C)[C@H]1[C@@H]2C [Hecogenyl Glucoside, hecogenyl β-D-glucoside] | 50 | 1,38 (± 1,51) | 0,89 | 0 | 87,5% | 100 | 100 | 100 | 20 | 0 | 10-40% | No mortality occurred | tolerability (Sprague-Dawley rats [4]): well tolerated; drug-related pathological changes (Sprague-Dawley rats [5]; 0,1% in chow, autopsy, macroscopic and microscopic): No drug-related pathological changes were detected in any tissues; solubility (physchem): ~5 µg/mL (≈ 8.43 µM); in vitro haemolytic effects (haemolysis): without showing the usual in vitro haemolytic effects |
| CC[C@H](CC[C@@H](C)[C@H]1CC[C@H]2[C@@H]3CC=C4C[C@@H](O[C@@H]5O[C@H](CO)[C@@H](O)[C@H](O)[C@H]5O)CC[C@]4(C)[C@H]3CC[C@]12C)C(C)C [Sitosteryl-β-D-Glucoside, reference compound] | 70 | 2,00 (± 1,63) | 1,20 | 20 | 90% | 100 | 100 | 17 | 25 | 0 |  |  |  |
| C[C@@H]1CC[C@@]2(OC1)O[C@H]1C[C@H]3[C@@H]4CC[C@H]5C[C@@H](O[C@@H]6O[C@H](CO)[C@@H](O)[C@H](O)[C@H]6O)CC[C@]5(C)[C@H]4CC[C@]3(C)[C@H]1[C@@H]2C [Tigogenyl Glucoside, tigogenyl β-D-glucoside] |  |  |  |  |  |  |  |  |  |  | 10-40% |  |  |
| C[C@@H]1CC[C@@]2(OC1)O[C@H]1C[C@H]3[C@@H]4CC=C5C[C@@H](O[C@@H]6O[C@H](CO)[C@@H](O)[C@H](O)[C@H]6O)CC[C@]5(C)[C@H]4CC[C@]3(C)[C@H]1[C@@H]2C [Diosgenyl Glucoside, diosgenyl β-D-glucoside] | 44 | 1,33 (± 1,66) | 1,05 | 0 | 85,7% | 100 | 100 | 50 | 25 | 0 | 10-40% | No mortality occurred | drug-related pathological changes (Sprague-Dawley rats [5]; rat, in vivo): No drug-related pathological changes were detected in any tissues; in vitro haemolytic effects (haemolysis; in vitro, reference (6)): without showing the usual in vitro haemolytic effects; solubility (water solubility; 25° C.): ~5 µg/mL (≈ 8.67 µM); solubility (water solubility; room temperature, colloidal solution): 5 µg/mL (≈ 8.67 µM) |
| C[C@@H]1CC[C@@]2(OC1)O[C@H]1C[C@H]3[C@@H]4CC=C5C[C@@H](O)CC[C@]5(C)[C@H]4CC[C@]3(C)[C@H]1[C@@H]2C [diosgenin] |  |  |  |  |  |  |  |  |  |  |  |  | toxicity [6]: non-toxic; serum cholesterol levels [7]: lowers the serum cholesterol levels |
